Assay results: patent US20140179726A1, “GUT MICROFLORA AS BIOMARKERS FOR THE PROGNOSIS OF CIRRHOSIS AND BRAIN DYSFUNCTION” (priority 2011, published 2014)
Where “and” joins values, the source holds several entries; their conditions need not be identical. Equal values may be shown once.

Tested on: stool microflora
Experiment: Prospective study after lactulose withdrawal: stool microbiome on lactulose and 14 days off
Type: in vivo, human
Protocol: Prospective study: A selected group of seven cirrhotic patients in the HE group currently only on lactulose (who were also included in the cross-sectional study) were systematically withdrawn from therapy. Their diet was controlled over the study period. Their stool microflora was analyzed while on lactulose and then 14 days off of lactulose therapy. Day 14 was chosen since prior culture-based studies have shown a change in fecal flora after lactulose initiation within that time frame (31).
Interrogation of the Microbiome: Stool was collected and DNA extracted for microbiome analysis within 24 hours of collection from patients and controls using published techniques (29). We first routinely use Length Heterogeneity PCR (LH-PCR) fingerprinting of the 16S rRNA to rapidly survey our samples and standardize the community amplification. We then interrogated the microbial taxa associated with the gut fecal microbiome using Multitag Pyrosequencing (MTPS). This technique allows the rapid sequencing of multiple samples at one time yielding thousands of sequence reads per sample (12).
MTPS: We employed the MTPS process to characterize the microbiome from the fecal samples. Specifically, we have generated a set of 96 emulsion PCR fusion primers that contain the 454 emulsion PCR linkers on the 27F and 355R primers and a different 8 base “barcode” between the A adapter and 27F primer. Thus, each fecal sample was amplified with unique bar-coded forward 16S rRNA primers and then up to 96 samples were pooled and subjected to emulsion PCR and pyrosequenced using a GS-FLX pyrosequencer (Roche). Data from each pooled sample were “deconvoluted” by sorting the sequences into bins based on the barcodes using custom PERL scripts. Thus, we were able to normalize each sample by the total number of reads from each barcode. We have noted that ligating tagged primers to PCR amplicons distorts the abundances of the communities and thus it is critical to incorporate the tags during the original amplification step (12). Several groups have employed various barcoding strategies to analyze multiple samples and this strategy is now well accepted (38).
RDP10 Analysis: We identified the taxa present in each sample using the Bayesian analysis tool in Version 10 of the Ribosomal Database Project (RDP10). The abundances of the bacterial identifications were then normalized using a custom PERL script and taxa present at >1% of the community were tabulated. We chose this cutoff because of our a priori assumption that taxa present in <1% of the community vary between individuals and have minimal contribution to the functionality of that community and 2,000 reads per sample will only reliably identify community components that are greater than 1% in abundance (13).
The cirrhosis group was divided into those with and without HE and were compared. Data from the significant variables between HE and non-HE groups were combined in a MANOVA model. Within HE patients, comparison was made between those on lactulose alone to those with lactulose and rifaximin. Microbiome abundance comparisons between groups were made at a family level using non-parametric tests. A comparison was performed between patients on and withdrawn off of lactulose therapy using the Wilcoxon matched-pair signed rank tests. All values are presented as mean±standard deviation unless mentioned otherwise.

[1] = stool, baseline on lactulose, seven patients

`OC[C@H]1O[C@@H](O[C@@H]2[C@@H](CO)OC(O)(CO)[C@H]2O)[C@H](O)[C@@H](O)[C@H]1O` (mixture of isomers) [lactulose] was tested, and the “clinically recurrent HE at day 14” value (after systematic withdrawal of lactulose, seven patients) was “None of the patients had clinically recurrent HE”, the “abundance of Faecalibacterium spp. post-withdrawal” value (stool, 14 days off lactulose, p=0.026 vs on lactulose) was 1% and the “abundance of Veillonella spp. post-withdrawal” value (stool, 14 days off lactulose, trend, p=0.07) was 0%. The “abundance of Alcaligenaceae” value [1] was 2.6%, the “abundance of Alistipes” value [1] was 3% and the “abundance of Bacteroides” value [1] was 35%. The “abundance of Clostridium spp.” value [1] was less than 1%, the “abundance of Dialister” value [1] was 2% and the “abundance of Faecalibacterium” value [1] was 7% and 6%. The “abundance of Hafnia” value [1] was 2%, the “abundance of Hallella” value [1] was 4% and the “abundance of Lachnospira” value [1] was 5%. For the same molecule, the “abundance of Lactobacillus spp.” value [1] was less than 1%, the “abundance of Parabacteroides spp.” value [1] was 2% and the “abundance of Porphyromonadaceae” value [1] was 1.7%. For the same molecule, the “abundance of Prevotella” value [1] was 13%, the “abundance of Roseburia” value [1] was 3% and the “abundance of Ruminococcus spp.” value [1] was less than 1%. For the same molecule, the “abundance of Shigella spp.” value [1] was less than 1%, the “abundance of Streptococcus spp.” value [1] was less than 1% and the “abundance of Succinispira spp.” value [1] was 2%. For the same molecule, the “abundance of Sutterella spp.” value [1] was 1%, the “abundance of Veillonella” value [1] was 2% and the “other relative abundance change after lactulose withdrawal” value (stool, day 14, including Porphyromonadaceae and Alcaligenaceae) was “No other significant relative abundance change”.
